System: bacteria
Test: Effect of metiram alone on bacteria

metiram
effect on bacteria: very close to zero

Reference: patent publication US20090011935A1, “Method of Inducing Tolerance of Plants Against Bacterioses” (BASF SE, priority 2006, published 2009)
